Target: T1, soluble guanylate cyclase (sGC) (Rattus norvegicus, UniProt P19686+P20595, C541D/E473K/R592Q)
T1 construct: To reconstitute the full length mutated gene, these three discrete fragments were used as template in a final PCR reaction; expressed in transfected cells
T1 sequence (P19686 1-690 R592Q): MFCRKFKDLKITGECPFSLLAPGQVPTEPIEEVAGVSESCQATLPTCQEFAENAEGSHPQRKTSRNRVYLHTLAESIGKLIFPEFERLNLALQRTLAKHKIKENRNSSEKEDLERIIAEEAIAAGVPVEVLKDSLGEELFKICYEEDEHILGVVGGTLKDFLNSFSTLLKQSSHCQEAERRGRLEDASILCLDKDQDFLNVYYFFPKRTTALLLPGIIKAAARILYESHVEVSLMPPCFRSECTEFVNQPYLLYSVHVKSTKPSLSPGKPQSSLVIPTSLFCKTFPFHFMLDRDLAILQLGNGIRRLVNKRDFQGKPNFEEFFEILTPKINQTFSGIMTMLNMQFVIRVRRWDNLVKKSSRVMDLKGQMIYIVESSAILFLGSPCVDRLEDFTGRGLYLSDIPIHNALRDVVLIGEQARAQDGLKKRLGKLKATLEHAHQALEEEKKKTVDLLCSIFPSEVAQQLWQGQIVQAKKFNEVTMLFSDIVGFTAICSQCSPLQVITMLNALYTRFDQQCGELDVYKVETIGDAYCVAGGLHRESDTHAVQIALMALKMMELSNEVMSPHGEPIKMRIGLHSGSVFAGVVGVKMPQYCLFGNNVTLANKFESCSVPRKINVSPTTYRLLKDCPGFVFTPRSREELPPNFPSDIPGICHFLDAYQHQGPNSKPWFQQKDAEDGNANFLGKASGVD
T1 sequence (P20595 1-619 E473K/C541D): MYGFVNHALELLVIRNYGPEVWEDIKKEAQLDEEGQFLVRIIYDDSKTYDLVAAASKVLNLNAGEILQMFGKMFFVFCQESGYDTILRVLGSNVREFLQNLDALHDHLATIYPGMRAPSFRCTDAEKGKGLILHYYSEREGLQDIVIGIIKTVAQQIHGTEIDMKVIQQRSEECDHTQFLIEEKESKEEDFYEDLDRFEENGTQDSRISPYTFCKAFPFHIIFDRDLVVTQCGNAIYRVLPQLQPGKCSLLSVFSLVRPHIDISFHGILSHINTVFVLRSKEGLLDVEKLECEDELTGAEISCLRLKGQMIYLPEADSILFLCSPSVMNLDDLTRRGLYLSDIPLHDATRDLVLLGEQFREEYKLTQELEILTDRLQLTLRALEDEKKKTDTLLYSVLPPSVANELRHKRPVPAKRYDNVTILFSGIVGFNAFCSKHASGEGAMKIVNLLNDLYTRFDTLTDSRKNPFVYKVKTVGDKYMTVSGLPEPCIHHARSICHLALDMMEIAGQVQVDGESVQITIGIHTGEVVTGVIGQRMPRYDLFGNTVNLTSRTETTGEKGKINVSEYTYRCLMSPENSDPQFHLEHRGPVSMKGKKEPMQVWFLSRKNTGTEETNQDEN
Assay: MRE-CRE luciferase reporter assay in CHO cAMPL cells expressing mutated sGC (clone 7)
Assay type: cell-based
Conditions: dose response of BAY41-2272 in the absence or presence of ODQ (300 nM, 3 µM, 30 µM); 384 wp, Tyrode buffer
Procedure: According to the invention, the sGC enzymatic activity is determined by coupling a sGC enzyme with modified substrate specificity to a cAMP sensitive reporter construct in a suitable eukaryotic or prokaryotic cell, whereby the activity of the reporter gene is indicative of the sGC enzymatic activity. The sGC enzyme with modified substrate specificity is able to catalyze the conversion of ATP into cyclic AMP without affecting the allosteric regulation of the natural enzyme. The sGC substrate specificity can be modified by replacing the amino acid residues involved in nucleotide binding with the corresponding residues present in the active site of adenylate cyclase. For example, when rat sGC is used, the amino acids Arg592 of α subunit, Glu473 and Cys541 of β subunit are respectively changed into Gln, Lys and Asp, to confer ATP substrate-specificity. More details on the modification of sGC substrate specificity can be found in Sunahara et al. (1998), which is hereby incorporated by reference.
Rat wild type sGC […] and β1 subunits were amplified from brain cDNA by RT-PCR and used as templates for site directed mutagenesis. […]
1500 c/w were seeded in 384 wp. […] Luciferase activity was detected after injection of 25ul Bright-GloTM (Promega) at the CCD camera (60" measurement, high sensitivity). […]

SMILES: O=c1onc2cnc3ccccc3n12 [ODQ]
- Inhibition of BAY41-2272 activity by ODQ: BAY41-2272 stimulating effect on sGC is competed by ODQ

From patent EP1616965A1, “Methods and assays for detecting guanylate cyclase activity” (AXXAM S.r.l., priority 2004, dated 2006)
